Test results taken from US20230189805A1, “MULTI-SOLVENT INSECTICIDAL COMPOSITIONS INCLUDING SULFOXIMINE” (CLARKE MOSQUITO CONTROL PRODUCTS, INC., priority 2020, published 2023).

System: Culex sp. mosquitos
Test: Laboratory test of samples with and without surfactant against Culex sp. mosquitos
Type: in vivo
Experimental: Various amounts of different surfactants were evaluated to determine possible impacts on efficacy. In one set of trials, different amounts of sulfoxaflor were tested with and without a surfactant (Pluronic L92 from BASF).

[1] = sulfoxaflor 0.5 wt.%, surfactant (Pluronic L92) 20 wt.%
[2] = sulfoxaflor 0.5 wt.%, surfactant None
[3] = sulfoxaflor 1 wt.%, surfactant None

CC(c1ccc(C(F)(F)F)nc1)S(C)(=O)=NC#N (centres unmarked) [Sulfoxaflor, sulfoxaflor]
1-hour knockdown [1]: 2% | 24 hour mortality [1]: 64% | 48 hour mortality [1]: 92% | 1-hour knockdown [2]: 0% | 24 hour mortality [2]: 27% | 48 hour mortality [2]: 76% | 72 hour mortality [2]: 86% | 1-hour knockdown [3]: 18% | 24 hour mortality [3]: 62% | 48 hour mortality [3]: 94% | 72 hour mortality [3]: 98%
